From US20170216329A1, “Ceramide-Rubusoside Nanomicelles and Their Use in Cancer Therapy” (Board of Supervisors of Louisiana State University and …, priority 2014, published 2017)

Experiments:
[1] = tested on: p53, Bax and p21 in the small intestine; assay: p53 restoration in heterozygous p53R172H/+ transgenic mice (small intestine); type: in vivo; conditions: 1 mg/kg, i.p., every 3 days for 6 days; vs. saline
Excerpt: We examined the effects of Cer on restoring wt p53 expression in p53 missense transgenic mice. The experimental animals were heterozygous 129S4-Trp53^tm2.1Tyj transgenic mice, which carry the mutation p53^R172H/+, and have a genetic predisposition to cancer. (Doyle et al., 2010; Olive et al., 2004; Yu et al., 2012) These mice were generously provided by the NCI Mouse Repository (Rockville, Md.). We analyzed the genotypes of offspring by PCR analysis of DNA from blood collected from the tail vein. Heterozygous (HTZ) p53^R172H/+ mice were treated with C6-Cer or C6-Cer-RUB (1 mg/kg, i.p., every 3 days for 6 days).

[2] = tested on: A2780 ovarian cancer cells (p53 wild-type); assay: Cell viability after 72 hours, A2780; type: cell-based
[3] = tested on: protein phosphatase 1 (PP1); assay: PP1 activity in NCI/ADR-RES cells; type: cell-based, human
Method: Cer can modulate gene expression, not only by activating transcription, but also by determining protein isoform. […] We assessed the roles of protein phosphatase 1 (PP1) and serine/arginine-rich splicing-factor 1 SRSF1 in Cer-induced wt p53 restoration via PP1 and SRSF1 in NCI/ADR-RES human ovarian cancer cells. […] Cells were pretreated with CalA (5 nM) for 4 hr, and then with either MBO-asGCS (MBO-as, 100 nM) or C6-Cer (2.5 μM) for 72 hr. FIG. 2 depicts PP1 activity in NCI/ADR-RES cells with various treatments. […] These increases were correlated with increases in wt p53 mRNA (exon 5) and pp53 (as assessed by RT-PCR amplification, data not shown).

[4] = tested on: OVCAR3 ovarian cancer cells (p53 R248 missense mutation); assay: Cell viability after 72 hours, OVCAR3; type: cell-based, Human
Method: We examined the effect of Ceramide-RUB nanomicelles on p53 restoration in cancer cell models. Human OVCAR3 ovarian cancer cells carry a p53 R248 missense mutation, and are resistant to many anticancer drugs. […] FIG. 3 depicts cell viability (as a percentage of control) after treatment for 72 hours with varying concentrations of C6-Ceramide. FIG. 4 depicts cell viability (as a percentage of control) after treatment for 72 hours with varying concentrations of C6-Ceramide-Rubusoside. FIG. 5 depicts cell viability (as a percentage of control) after treatment for 72 hours with varying concentrations of Rubusoside.

[5] = tested on: wt p53 (phosphorylated-Ser15); conditions: cited from earlier work
[6] = tested on: HTZ SW48/TP53+/− and parental SW48 (wt p53) cells; assay: Sensitivity of SW48 cells to Cers; type: cell-based, human; conditions: both cell lines, data not shown
[7] = WHO intake limits (ADI, NOEL); conditions: converted from the steviol ADI
Method: (§1) Rubusoside (RUB) is a steviol glycoside. Steviol glycosides, extracted from the leaves of various plants, are often used as natural food sweeteners. […] Rubusoside is generally recognized as safe (GRAS) as a food additive for the general public according to the World Health Organization (WHO) (2005). A WHO expert panel has set 760 mg/kg/day RUB as the no-observed-effect level (NOEL) (2005). Thus there is ample tolerance for avoiding toxicity when rubusoside is employed in the present invention.

[8] = set by WHO expert panel (2005); cited from earlier work
[9] = Preliminary oral toxicity study in normal mice; type: in vivo; conditions: up to 4 g daily per kg body mass, orally, two weeks
Method: as §1

With `CCCCCCCCCCCCC/C=C/[C@@H](O)[C@H](CO)NC(=O)CCCCC` [C6-Cer, C6-Ceramide] the “protein level of Bax in the small intestine” value [1] was “significantly increased”, the “protein level of p53 in the small intestine” value [1] was “significantly increased” and the IC50 [2] was 0.9 µM. For the same molecule, the PP1 activity ([3]; MBO-asGCS 100 nM or C6-Cer 2.5 μM, 72 hr) was “significantly increased”, the IC50 ([4]; OVCAR3 cells, 72 hours) was 12.5 µM and the “resistance of OVCAR3 relative to A2780 cells” value ([4]; ratio of IC50 values) was 12 times. The “restoration of p53 activity” value ([5]; exogenous, Liu et al., 2011) was “restored p53 activity”.

In the case of `CCCCCCCCCCCCC/C=C/[C@@H](O)[C@H](CO)NC(=O)CCCCCCCCCCCCCCCCC` [C18-Cer], the “relative sensitivity of cells to Cers” value [6] is reported as “more sensitive to C18-Cer than C6-Cer”.

For `CCCC[C@@H](C)[C@@H](OC(=O)C[C@@H](CC(=O)O)C(=O)O)[C@H](C[C@@H](C)C[C@H](O)CCCC[C@@H](O)C[C@H](O)[C@H](C)N)OC(=O)C[C@@H](CC(=O)O)C(=O)O` [Fumonisin B1], the “effect on p53 restoration by MBO-asGCS” value ([5]; inhibitor of Cer synthase) is listed as “inhibited p53 restoration”.

In the case of `C=C1C[C@@]23CC[C@H]4[C@@](C)(CCC[C@@]4(C)C(=O)O[C@@H]4O[C@H](CO)[C@@H](O)[C@H](O)[C@H]4O)[C@@H]2CC[C@]1(O[C@@H]1O[C@H](CO)[C@@H](O)[C@H](O)[C@H]1O)C3` [Rubusoside, rubusoside], the cytotoxicity ([2]; any concentration tested up to 15 μM) is reported as “no cytotoxicity”, the cytotoxicity ([4]; OVCAR-3 cells, any concentration tested up to 15 μM, 72 hours) is reported as “no cytotoxicity” and the “Accepted Daily Intake (ADI), roughly comparable amount” value [7] is reported as 8 to 12 mg/kg/day. The “no-observed-effect level (NOEL)” value [8] was 760 mg/kg/day and the “clinical signs of toxicity” value [9] was “did not cause any clinical signs of toxicity”.

With `COC[C@@H]([C@H](O)[C@H](O)C(=O)NCC[C@H](C)c1nc(/C=C/C[C@@H]2O[C@]3(C[C@@H](O)[C@@H]2C)O[C@H]([C@H](C[C@H](O)[C@H](C)[C@H](O)[C@H](C)/C=C(C)/C(C)=C/C=C/C(C)=C\C#N)OC)[C@H](OP(=O)(O)O)C3(C)C)co1)N(C)C` [calyculin A] the “effect on PP1 activation by MBO-asGCS and C6-Cer” value [3] was “abolished these effects”.
